Results published in publication PMC3438379 (Journal of enzyme inhibition and medicinal chemistry, 2011).
pIC50: −log10 of the molar value. Like-named read-outs stand apart in the source and are kept apart here.

Experiments:
[1] = Relative aqueous solubility by stepwise water dilution of DMSO solution; assay type: physicochemical; settings: 50 μL DMSO solution of 5 mg mL^−1, water added in 50 μL steps
[2] = test system: HIV-1-infected MT-4 cells; settings: ref [9]; cited from earlier work
[3] = cited from earlier work
HIV-1 protease = HIV-1 protease (Human immunodeficiency virus type 1 group M subtype B, UniProt P04585); settings: read-out: IC50 (inhibition of HIV-1 protease), cited from earlier work

Compound | Water solubility (dilution steps required to achieve clear solution) [1] | activity against HIV-induced cytopathic effects [2] | solubility in DMSO ([3]; 25°C, ref [23]) | solubility in ethanol ([3]; 25°C, ref [23]) | Water solubility ([3]; at 25°C, ref [22]) | solubility in water ([3]; room temperature, ref [22]) | pIC50 (HIV-1 protease; ref [18]) | pIC50 (HIV-1 protease; ref [19])
C=C(C)[C@@H]1CC[C@]2(C(=O)[O-])CC[C@]3(C)[C@H](CC[C@@H]4[C@@]5(C)CC[C@H](O)C(C)(C)[C@@H]5CC[C@]43C)[C@@H]12.C[N+](C)(C)CCO [compound 8, cholinium betulinate] | > 100x |  |  |  |  |  |  | 
C=C(C)[C@@H]1CC[C@]2(C(=O)O)CC[C@]3(C)[C@H](CC[C@@H]4[C@@]5(C)CC[C@H](OC(=O)CC(C)(C)C(=O)O)C(C)(C)[C@@H]5CC[C@]43C)[C@@H]12 [3-O-(3′,3′-dimethylsuccinyl) betulinic acid] |  | high activity |  |  |  |  |  | 
C=C(C)[C@@H]1CC[C@]2(C(=O)O)CC[C@]3(C)[C@H](CC[C@@H]4[C@@]5(C)CC[C@H](O)C(C)(C)[C@@H]5CC[C@]43C)[C@@H]12 [compound 1, 3β-hydroxy-lup-20(29)-en-28-oic acid] | < 2 x |  | 5 % (w/v) | 1 % (w/v) | 0.02 µg/mL | about 0.02 μg mL^−1 | 5.05 | 5.60
